Where two headings read alike, the source gives them in different places. One block for each compound: values may come before it.
Columns and labels:
[1] = system: extracted guinea pig ileum; experiment: Anti-CCK action in extracted guinea pig ileum (inhibition of CCK-8-induced contraction, Magnus tube); design: species or system guinea pig (Hartley strain, male); conditions: Cavia porcellus
Protocol: Anti-cholecystokinin (CCK) Action in Extracted Guinea Pig Ileum After sacrificing a male guinea pig (Hartley strain) by striking and exsanguination, a piece of extracted ileum was suspended from a Magnus tube, while applying tension of 0.5 g, containing 30 ml of Tyrode's solution (NaCl 136.9 mM, KCl 2.68 mM, CaCl2 1.8 mM, MgCl2 1.05 mM, NaH2 PO4 0.42 mM, NaHCO3 11.9 mM and glucose 5.55 mM) and ventilated with mixed O2 gas containing 5% CO2 at 37° C. Changes in contraction were recorded on smoked paper for isotonicity via a bevel. The piece of ileum was allowed to stand undisturbed for 30 minutes and then contracted by addition 1×10^-8 M CCK-8. After washing, this was repeated several times. After the contraction by CCK-8 had stabilized, the test compound was added. Contraction resulting from addition of 1×10^-8 M CCK was then measured 5 minutes later. The contraction caused by CCK-8 and the contraction caused by CCK-8 in the presence of the test compound at varying concentrations were compared, and the resulting IC50 values (concentration of test substance at which contraction caused by CCK-8 is inhibited by 50%) are shown in Table 2. The compound numbers shown in Table 2 indicate the target compounds according to the numbers of the embodiments.

[2] = target: T1, CCK-B (Rattus norvegicus, UniProt P30553); experiment: Central receptor (CCK-B) binding experiment, [^3 H]-CCK-8 binding inhibition; conditions: rat cerebrum homogenate, 0.2 nM [^3 H]-CCK-8, 60 minutes at 25° C
T1 construct: CCK-B receptors originating in the cell membrane of rat brain cells; from tissue; host or cells: rat cerebrum membranes (male rats, Japan Laboratory Animals)
T1 sequence (P30553 1-452): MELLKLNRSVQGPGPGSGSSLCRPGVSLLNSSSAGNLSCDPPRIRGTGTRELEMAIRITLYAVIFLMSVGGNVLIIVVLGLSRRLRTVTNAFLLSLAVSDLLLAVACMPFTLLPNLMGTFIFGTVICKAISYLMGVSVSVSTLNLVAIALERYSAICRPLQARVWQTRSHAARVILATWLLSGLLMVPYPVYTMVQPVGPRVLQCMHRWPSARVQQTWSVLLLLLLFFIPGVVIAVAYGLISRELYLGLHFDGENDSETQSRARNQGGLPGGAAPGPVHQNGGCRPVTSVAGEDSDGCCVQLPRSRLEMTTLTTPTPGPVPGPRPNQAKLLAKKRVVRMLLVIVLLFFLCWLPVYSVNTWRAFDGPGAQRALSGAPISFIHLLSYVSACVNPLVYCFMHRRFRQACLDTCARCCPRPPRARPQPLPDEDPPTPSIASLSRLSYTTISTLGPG
Protocol: (§1) Peripheral Receptor (CCK-A) and Central Receptor (CCK-B) Binding Experiment
(§2) The pancreas and cerebrum of male rats (Japan Laboratory Animals), which were sacrificed by decapitation and having body weights of 250-300 g, were extracted and immersed in cold Hepes buffer. After suspending these tissues using a Potter homogenizer, the suspension was centrifuged for 10 minutes at 48,000×g. The resulting residue was again suspended by addition of cold Hepes buffer and centrifuged for 10 minutes at 48,000×g. The resulting residue was transferred to cold incubation buffer.
(§3) A 1 ml aliquot of the homogenate was incubated for 60 minutes at 25° C. in the presence of 0.2 nM [^3 H]-CCK-8 and the test compound, in the presence of vehicle only (for measurement of 100% binding), or in the presence of 1 μM cold CCK-8 (for measurement of non-specific binding). Next, the reaction solution was promptly suction filtered using a Whatman glass GF/B filter immersed in Hepes buffer followed by washing the filter with cold Hepes buffer. Next, the glass filter was placed in Aquasol-2 followed by assay of radioactivity with a liquid scintillation counter.
(§4) The compound numbers shown in Table 3 indicate the target compounds according to the number of the embodiment.

[3] = target: T2, CCK-A (Rattus norvegicus, UniProt P30551); experiment: Peripheral receptor (CCK-A) binding experiment, [^3 H]-CCK-8 binding inhibition; conditions: for CCK-B/CCK-A: ratio of IC50 values CCK-B/CCK-A (selectivity for CCK-A), 60 min
T2 construct: CCK-A receptors prepared from the cell membranes of rat pancreas; from tissue; host or cells: rat pancreas membranes (male rats, Japan Laboratory Animals)
T2 sequence (P30551 1-444): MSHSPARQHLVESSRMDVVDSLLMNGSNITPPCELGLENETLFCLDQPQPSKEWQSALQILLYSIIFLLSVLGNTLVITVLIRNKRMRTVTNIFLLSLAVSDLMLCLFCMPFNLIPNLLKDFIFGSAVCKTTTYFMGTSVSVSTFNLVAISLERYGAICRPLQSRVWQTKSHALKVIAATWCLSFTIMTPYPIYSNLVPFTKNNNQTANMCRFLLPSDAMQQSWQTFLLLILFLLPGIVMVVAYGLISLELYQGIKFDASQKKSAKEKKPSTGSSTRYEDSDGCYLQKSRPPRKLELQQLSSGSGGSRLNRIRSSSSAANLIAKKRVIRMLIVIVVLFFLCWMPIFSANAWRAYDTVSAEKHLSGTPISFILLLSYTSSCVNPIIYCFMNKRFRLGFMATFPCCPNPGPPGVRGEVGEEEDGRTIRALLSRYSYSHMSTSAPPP
Protocol: as §1, §2, §3, §4

[4] = contraction by 1×10^-8 M CCK-8, test compound added 5 minutes before, extracted ileum, 37° C, read-out: Active IC50
[5] = rat pancreas homogenate, 0.2 nM [^3 H]-CCK-8, 60 minutes at 25° C, read-out: CCK-A IC50

Structure (SMILES): O=C(N[C@@H](CSc1ncccc1C(=O)O)C(=O)N1CCN(C(c2ccccn2)c2ccccn2)CC1)c1cc2ccccc2[nH]1 [Compound 8-5, (R)-4-bis(2-pyridyl)methyl-1-[3-(3-carboxypyridin-2-yl)thio-2-(indol-2-yl)carbonylamino]propionylpiperazine]
- IC50 [1, 4]: 0.35 µM
- IC50 [2]: 57 µM
- IC50 [3, 5]: 0.05 µM
- CCK-B/CCK-A [3]: 1140

Structure (SMILES): COc1ccc2[nH]c(C(=O)N[C@@H](CSc3ncccc3C(=O)O)C(=O)N3CCC(C(c4ccccc4)c4ccccc4)CC3)cc2c1 [Compound 21-2, (R)-1-[3-(3-carboxypyridin-2-yl)thio-2-(5-methoxyindol-2-yl)carbonylamino]propionyl-4-diphenylmethylpiperidine]
- IC50 [2]: 1700 µM
- IC50 [3, 5]: 0.013 µM
- CCK-B/CCK-A [3]: 130770

Structure (SMILES): O=C(N[C@@H](CSc1ncccc1P(=O)(O)O)C(=O)N1CCN(C(c2ccccc2)c2ccccc2)CC1)c1cc2ccccc2[nH]1 [Compound 22-4, (R)-4-diphenylmethyl-1-[3-(3-phosphonopyridin-2-yl)thio-2-(indol-2-yl)carbonylamino]propionylpiperazine]
- IC50 [1, 4]: 0.036 µM
- IC50 [2]: 56 µM
- IC50 [3, 5]: 0.02 µM
- CCK-B/CCK-A [3]: 2800

Structure (SMILES): O=C(N[C@@H](Cn1nncc1C(=O)O)C(=O)N1CCN(C(c2ccccc2)c2ccccc2)CC1)c1cc2ccccc2[nH]1 [Compound 32-2, (S)-4-diphenylmethyl-1-[3-(5-carboxy-1,2,3-triazol-1-yl)-2-(indol-2-yl)carbonylamino]propionylpiperazine]
- IC50 [1, 4]: 0.036 µM

Structure (SMILES): O=C(N[C@@H](CSc1ccccc1C(=O)O)C(=O)N1CCN(C(c2ccccc2)c2ccccc2)CC1)c1cc2ccccc2[nH]1 [Compound 9-3, (R)-1-[3-(2-carboxyphenyl)thio-2-(indol-2-yl)carbonylamino]propionyl-4-diphenylmethylpiperazine]
- IC50 [2]: 6 µM
- IC50 [3, 5]: 0.21 µM
- CCK-B/CCK-A [3]: 29

Structure (SMILES): COc1ccc2[nH]c(C(=O)N[C@@H](CSc3ncccc3C(=O)O)C(=O)N3CCN(C(c4ccccc4)c4ccccc4)CC3)cc2c1 [Compound 6-2, (R)-1-[3-(3-carboxypyridin-2-yl)thio-2-(5-methoxyindol-2-yl)carbonylamino]propionyl-4-diphenylmethylpiperazine]
- IC50 [1, 4]: 0.052 µM
- IC50 [2]: 18 µM
- IC50 [3, 5]: 0.043 µM
- CCK-B/CCK-A [3]: 419

Structure (SMILES): CCCCCN(CCCOC)C(=O)C(CCC(=O)O)NC(=O)c1ccc(Cl)c(Cl)c1 (stereo not shown) [CR1505, Loxiglumide, reference compound]
- IC50 [1, 4]: 3.3 µM
- IC50 [2]: 24 µM
- IC50 [3, 5]: 1.5 µM
- CCK-B/CCK-A [3]: 16

Structure (SMILES): COc1ccc(C(c2ccc(OC)cc2)N2CCN(C(=O)[C@H](CSc3ncccc3C(=O)O)NC(=O)c3cc4ccccc4[nH]3)CC2)cc1 [Compound 7-4, (R)-4-bis(4-methoxyphenyl)methyl-1-[3-(3-carboxypyridin-2-yl)thio-2-(indol-2-yl)carbonylamino]propionylpiperazine]
- IC50 [2]: 61 µM
- IC50 [3, 5]: 0.8 µM
- CCK-B/CCK-A [3]: 76

Structure (SMILES): O=C(N[C@@H](Cn1nnc(C(=O)O)c1C(=O)O)C(=O)N1CCN(C(c2ccccc2)c2ccccc2)CC1)c1cc2ccccc2[nH]1 [Compound 31-3, (S)-1-[3-(4,5-dicarboxy-1,2,3-triazol-1-yl)-2-(indol-2-yl)carbonylamino]propionyl-4-diphenylmethylpiperazine]
- IC50 [1, 4]: 0.032 µM

Structure (SMILES): O=C(N[C@@H](CSc1ncccc1C(=O)O)C(=O)N1CCC(C(c2ccccc2)c2ccccc2)CC1)c1cc2cc(Cl)ccc2[nH]1 [Compound 20-2, (R)-1-[3-(3-carboxypyridin-2-yl)thio-2-(5-chloroindol-2-yl)carbonylamino]propionyl-4-diphenylmethylpiperidine]
- IC50 [2]: > 1000 µM
- IC50 [3, 5]: 0.06 µM
- CCK-B/CCK-A [3]: > 16667

Structure (SMILES): O=C(N[C@@H](CSc1ncccc1C(=O)O)C(=O)N1CCN(C2c3ccccc3CCc3ccccc32)CC1)c1cc2ccccc2[nH]1 [Compound 19-5, (R)-1-[3-(3-carboxypyridin-2-yl)thio-2-(indol-2-yl)carbonylamino]propionyl-4-(10,11-dihydro-5H-dibenzo[a,d]cyclohepten-5-yl)piperazine]
- IC50 [2]: 64 µM
- IC50 ([3]; rat pancreas cell membranes, read-out: activity in binding experiment on CCK-A receptors prepared from the cell membranes of rat pancreas): 0.009 µM
- IC50 [3, 5]: 0.009 µM
- CCK-B/CCK-A [3]: 7111

Continued, in another order:

- IC50 [2]: 12 µM
- IC50 [3, 5]: 0.21 µM
- CCK-B/CCK-A [3]: 57
Structure (SMILES): O=C(N[C@@H](CCSc1ncccc1C(=O)O)C(=O)N1CCN(C(c2ccccc2)c2ccccc2)CC1)c1cc2ccccc2[nH]1 [Compound 25-7, (S)-1-[4-(3-carboxypyridin-2-yl)thio-2-(indol-2-yl)carbonylamino]butyryl-4-diphenylmethylpiperazine]

- IC50 [2]: 13 µM
- IC50 [3, 5]: 0.56 µM
- CCK-B/CCK-A [3]: 23
Structure (SMILES): O=C(N[C@@H](CSc1nccnc1C(=O)O)C(=O)N1CCN(C(c2ccccc2)c2ccccc2)CC1)c1cc2ccccc2[nH]1 [Compound 17-3, (R)-1-[3-(3-carboxypyrazin-2-yl)thio-2-(indol-2-yl)carbonylamino)propionyl-4-diphenylmethylpiperazine]
- IC50 ([1]; extracted guinea pig ileum, read-out: IC50 with respect to the extracted guinea pig ileum (in vitro)): 0.0072 µM
- IC50 [1, 4]: 0.0072 µM

- IC50 [2]: 10 µM
- IC50 [3, 5]: 0.016 µM
- CCK-B/CCK-A [3]: 625
Structure (SMILES): O=C(N[C@@H](CCc1ocnc1C(=O)O)C(=O)N1CCN(C(c2ccccc2)c2ccccc2)CC1)c1cc2ccccc2[nH]1 [Compound 26-5, (S)-1-[4-(4-carboxyoxazol-5-yl)-2-(indol-2-yl)carbonylamino]butyryl-4-diphenylmethylpiperazine]
- IC50 [1, 4]: 0.017 µM

- IC50 [2]: 25 µM
- IC50 [3, 5]: 0.14 µM
- CCK-B/CCK-A [3]: 179
Structure (SMILES): O=C(N[C@@H](CCCn1nnc(C(=O)O)c1C(=O)O)C(=O)N1CCN(C(c2ccccc2)c2ccccc2)CC1)c1cc2ccccc2[nH]1 [Compound 23-6, (S)-1-[5-(4,5-dicarboxy-1,2,3-triazol-1-yl)-2-(indol-2-yl)carbonylamino]valeryl-4-diphenylmethylpiperazine]

- IC50 [2]: 26 µM
- IC50 [3, 5]: 1.5 µM
- CCK-B/CCK-A [3]: 17
Structure (SMILES): O=C(O)c1cn(CCC[C@H](NC(=O)c2cc3ccccc3[nH]2)C(=O)N2CCN(C(c3ccccc3)c3ccccc3)CC2)nn1 [Compound 29-2, (S)-1-[5-(4-carboxy-1,2,3-triazol-1-yl)-2-(indol-2-yl)carboxyamino]valeryl-4-diphenylmethylpiperazine]

- IC50 [2]: 3 µM
- IC50 [3, 5]: 0.07 µM
- CCK-B/CCK-A [3]: 43
Structure (SMILES): O=C(N[C@@H](CCCn1nncc1C(=O)O)C(=O)N1CCN(C(c2ccccc2)c2ccccc2)CC1)c1cc2ccccc2[nH]1 [Compound 28-3, (S)-1-[5-(5-carboxy-1,2,3-triazol-1-yl)-2-(indol-2-yl)carbonylamino]valeryl-4-diphenylmethylpiperazine]
